Data set [1] deals with HeLa. As to the kind of experiment: Phototoxicity against human HeLa cells assessed as survival fraction at 1x10'-5 M incubated 24 hrs under 6 J/cm'2 red light with irradiance of 5 mW/cm'2 by MTT assay. The note with it: light or radiation study, read-out: Survival. The format is functional. Background: Formazan colour is commonly taken as a measure of viable cells.
In data set [2] the test system is HeLa. Put plainly: Phototoxicity against human HeLa cells assessed as survival fraction at 1x10'-4 M incubated 24 hrs under 6 J/cm'2 red light with irradiance of 5 mW/cm'2 by MTT assay. Format: functional. The note with it: light or radiation study, read-out: Survival.
The test system of data set [3] is HeLa. As to the kind of experiment: Phototoxicity against human HeLa cells assessed as survival fraction at 1x10'-4 M incubated 24 hrs under 12 J/cm'2 red light with irradiance of 5 mW/cm'2 by MTT assay. Format: functional. Particulars: light or radiation study, read-out: Survival.
The test system of data set [4] is HeLa. As to the kind of experiment: Phototoxicity against human HeLa cells assessed as survival fraction at 1x10'-5 M incubated 24 hrs under 9 J/cm'2 red light with irradiance of 5 mW/cm'2 by MTT assay. The note with it: light or radiation study, read-out: Survival. Format: functional.
In data set [5] the test system is HeLa. As to the kind of experiment: Cytotoxicity against human HeLa cells assessed as survival fraction at 1x10'-5 M incubated 24 hrs in dark by MTT assay. Format: functional. Particulars: read-out: Survival.
The subject of data set [6] is HeLa. As to the kind of experiment: Cytotoxicity against human HeLa cells assessed as survival fraction at 1x10'-4 M incubated 24 hrs in dark by MTT assay. The format is functional. The note with it: read-out: Survival.
For data set [7], the system named is HeLa. Put plainly: Phototoxicity against human HeLa cells assessed as survival fraction at 1x10'-4 M incubated 24 hrs under 9 J/cm'2 red light with irradiance of 5 mW/cm'2 by MTT assay. The format is functional. The note with it: light or radiation study, read-out: Survival.
The test system of data set [8] is HeLa. As to the kind of experiment: Phototoxicity against human HeLa cells assessed as survival fraction at 1x10'-5 M incubated 24 hrs under 12 J/cm'2 red light with irradiance of 5 mW/cm'2 by MTT assay. Format: functional. Particulars: light or radiation study, read-out: Survival.
Data set [9] has as its system HeLa. As to the kind of experiment: Drug uptake in human HeLa cells assessed as lysosomes at 1x10'-5 M incubated 24 hrs by acridine orange staining. Format: ADME, cell-based. Particulars: 10 µM.
For data set [10], the system named is HeLa. As to the kind of experiment: Phototoxicity against human HeLa cells assessed as survival fraction at 1x10'-5 M incubated 24 hrs under 3 J/cm'2 red light with irradiance of 5 mW/cm'2 by MTT assay. The format is functional. The note with it: light or radiation study, read-out: Survival.
Data set [11] relates to HeLa. As to the kind of experiment: Drug uptake in human HeLa cells assessed as juxtanuclear portion at 1x10'-5 M incubated 24 hrs by ceramide. The format is ADME, cell-based. The note with it: 10 µM.
Data set [12] concerns HeLa. Put plainly: Phototoxicity against human HeLa cells assessed as lethality rate at 1x10'-5 M incubated 24 hrs under 9 J/cm'2 red light with irradiance of 5 mW/cm'2 by MTT assay. Format: functional.
Data set [13] concerns HeLa. Put plainly: Phototoxicity against human HeLa cells assessed as changes in microtubular organization at LD70 concentration incubated 24 hrs under 12 J/cm'2 red light with irradiance of 5 mW/cm'2 by immunofluorescence staining. Format: functional, cell-based.
Data set [14] relates to HeLa. As to the kind of experiment: Phototoxicity against human HeLa cells assessed as abnormalities in chromosome disposition in metaphase plate at LD70 concentration incubated 24 hrs under 12 J/cm'2 red light with irradiance of 5 mW/cm'2 by immunofluorescence staining. The format is functional, cell-based.
Data set [15] has as its system HeLa. As to the kind of experiment: Drug uptake in human HeLa cells assessed as filamentous pattern of mitochondria at 1x10'-5 M incubated 24 hrs by mitotracker green. The format is ADME, cell-based. The note with it: 10 µM.
Data set [16] relates to HeLa. As to the kind of experiment: Drug uptake in human HeLa cells assessed as located in cytoplasm at 1x10'-5 M incubated 24 hrs by red emission under fluorescence microscopy. The format is ADME, cell-based. Particulars: 10 µM.
Data set [17] relates to HeLa. Put plainly: Drug uptake in human HeLa cells assessed as located in granules at 1x10'-5 M incubated 24 hrs by red emission under fluorescence microscopy. The format is ADME, cell-based. Particulars: 10 µM.
For data set [18], the system named is HeLa. Put plainly: Phototoxicity against human HeLa cells assessed as survival fraction at 1x10'-7 M incubated 24 hrs under 9 J/cm'2 red light with irradiance of 5 mW/cm'2 by MTT assay. The format is functional. Particulars: light or radiation study, read-out: Survival.
For data set [19], the system named is HeLa. As to the kind of experiment: Cytotoxicity against human HeLa cells assessed as survival fraction at 1x10'-7 M incubated 24 hrs in dark by MTT assay. Format: functional. The note with it: read-out: Survival.
In data set [20] the test system is HeLa. Put plainly: Phototoxicity against human HeLa cells assessed as lethality rate at 1x10'-5 M incubated 24 hrs under 6 J/cm'2 red light with irradiance of 5 mW/cm'2 by MTT assay. The format is functional.
Data set [21] deals with HeLa. As to the kind of experiment: Phototoxicity against human HeLa cells assessed as changes in microtubular organization at LD20 concentration incubated 24 hrs under 12 J/cm'2 red light with irradiance of 5 mW/cm'2 by immunofluorescence staining. The format is functional, cell-based.
In data set [22] the test system is HeLa. As to the kind of experiment: Drug uptake in human HeLa cells assessed as nucleus at 1x10'-5 M incubated 24 hrs by red emission under fluorescence microscopy. The format is ADME, cell-based. The note with it: 10 µM.
Data set [23] deals with HeLa. Put plainly: Phototoxicity against human HeLa cells assessed as survival fraction at 1x10'-7 M incubated 24 hrs under 6 J/cm'2 red light with irradiance of 5 mW/cm'2 by MTT assay. The note with it: light or radiation study, read-out: Survival. Format: functional.
The test system of data set [24] is HeLa. As to the kind of experiment: Phototoxicity against human HeLa cells assessed as survival fraction at 1x10'-7 M incubated 24 hrs under 3 J/cm'2 red light with irradiance of 5 mW/cm'2 by MTT assay. Format: functional. Particulars: light or radiation study, read-out: Survival.
For data set [25], the system named is HeLa. As to the kind of experiment: Phototoxicity against human HeLa cells assessed as lethality rate at 1x10'-5 M incubated 24 hrs under 3 J/cm'2 red light with irradiance of 5 mW/cm'2 by MTT assay. Format: functional. Particulars: light or radiation study.
Data set [26] concerns HeLa. As to the kind of experiment: Drug uptake in human HeLa cells assessed as golgi apparatus at 1x10'-5 M incubated 24 hrs by mitotracker green. The format is ADME, cell-based. The note with it: 10 µM.
For data set [27], the system named is HeLa. As to the kind of experiment: Phototoxicity against human HeLa cells assessed as abnormalities in chromosome disposition in metaphase plate at LD20 concentration incubated 24 hrs under 12 J/cm'2 red light with irradiance of 5 mW/cm'2 by immunofluorescence staining. The format is functional, cell-based.

Calls of active or inactive are those of the source. No cut-off for these calls is given here.

As usually defined, the inhibition is the relative decrease from the control value, in per cent.

As for `OC[C@H]1O[C@@H]2O[C@H]3O[C@H](COc4c(F)c(F)c(-c5c6nc(c(-c7c(F)c(F)c(F)c(F)c7F)c7ccc([nH]7)c(-c7c(F)c(F)c(OC[C@H]8O[C@@H]9O[C@H]%10O[C@H](CO)[C@@H](O[C@H]%11O[C@H](CO)[C@@H](O[C@H]%12O[C@H](CO)[C@@H](O[C@H]%13O[C@H](CO)[C@@H](O[C@H]%14O[C@H](CO)[C@@H](O[C@H]%15O[C@H](CO)[C@@H](O[C@H]8[C@H](O)[C@H]9O)[C@H](O)[C@H]%15O)[C@H](O)[C@H]%14O)[C@H](O)[C@H]%13O)[C@@H](O)[C@H]%12O)[C@H](O)[C@H]%11O)[C@H](O)[C@H]%10O)c(F)c7F)c7ccc([nH]7)c7ccc5[nH]7)C=C6)c(F)c4F)[C@@H](O[C@H]4[C@H](O)[C@@H](O)[C@@H](O[C@H]5[C@H](O)[C@@H](O)[C@@H](O[C@H]6[C@H](O)[C@@H](O)[C@@H](O[C@H]7[C@@H](O)[C@@H](O)[C@@H](O[C@H]8[C@H](O)[C@@H](O)[C@@H](O[C@H]1[C@H](O)[C@H]2O)O[C@@H]8CO)O[C@@H]7CO)O[C@@H]6CO)O[C@@H]5CO)O[C@@H]4CO)[C@H](O)[C@H]3O`, the viability at 10 µM turned out to be 121% in data set [1], 111% in data set [4], 121% in data set [5] and 57.6% in [8]. The viability at 100 µM in [2] turned out to be 86%; in data set [3] it was 57.6%; in data set [6], 86%; in data set [7], 85%.
As to `Fc1c(F)c(F)c(-c2c3nc(c(-c4c(F)c(F)c(F)c(F)c4F)c4ccc([nH]4)c4ccc([nH]4)c(-c4c(F)c(F)c(F)c(F)c4F)c4ccc2[nH]4)C=C3)c(F)c1F`, the Drug uptake entry in data set [9], in data set [11], in [15], in data set [16] and in data set [17] was “Active” in each case. Besides, the viability at 10 µM in data set [10] was determined as 104%; in [1], 80.9%; in data set [4], 44.5%; in data set [5], 108%; in data set [8], 38.5%. In addition, the Activity in [12] was 70%. The result in data set [13] and in data set [14] was Active. Moreover, the viability at 100 µM in data set [6] came out at 117%.
In the case of `OC[C@H]1O[C@@H]2O[C@H]3O[C@H](COc4c(F)c(F)c(-c5c6ccc([nH]6)c(-c6c(F)c(F)c(F)c(F)c6F)c6nc(c(-c7c(F)c(F)c(F)c(F)c7F)c7ccc([nH]7)c7ccc5[nH]7)C=C6)c(F)c4F)[C@@H](O[C@H]4[C@H](O)[C@@H](O)[C@@H](O[C@H]5[C@H](O)[C@@H](O)[C@@H](O[C@H]6[C@H](O)[C@@H](O)[C@@H](O[C@H]7[C@@H](O)[C@@H](O)[C@@H](O[C@H]8[C@H](O)[C@@H](O)[C@@H](O[C@H]1[C@H](O)[C@H]2O)O[C@@H]8CO)O[C@@H]7CO)O[C@@H]6CO)O[C@@H]5CO)O[C@@H]4CO)[C@H](O)[C@H]3O`, the viability at 10 µM in [10] turned out to be 93.6%; in [1], 95.6%; in data set [4], 81.6%; in data set [5], 162%; in data set [8] it was 81.6%. Also, the viability at 0.1 µM came out at 90.1% in data set [18], 113% in data set [19], 80.2% in [23] and 92% in data set [24]. In addition, the Activity in data set [20] is reported as 22%. The result in [21] and in data set [27] was Active. Besides, the Drug uptake result in data set [22] and in data set [26] was “Active” throughout. In addition, in [25], the inhibition at 10 µM was 20%.

These data come from ChEMBL document CHEMBL3407372, “Photodynamic effects induced by meso-tris(pentafluorophenyl)corrole and its cyclodextrin conjugates on cytoskeletal components of HeLa cells” (Eur J Med Chem, 2015).
